Experimental data as given in article PMC11357397, “Design, Synthesis, and Evaluation of Oleyl-WRH Peptides for siRNA Delivery” (Pharmaceuticals, 2024).

Columns and labels:
Assay in all cases: In vitro cytotoxicity of peptide/siRNA complexes (MTS)
Conditions in all cases: 35% v/v DMSO
MCF-7 cells = assay type: cell-based
Experimental: (§1) This study aimed to assess these complexes’ potential as a delivery system for siRNA-mediated gene silencing in cancer cells. Our initial experiments involved the use of the MDA-MB-231 (Figure 6A), MCF-7 (Figure 6B), SK-OV-3 (Figure 7A), and HEK-293 (Figure 7B) cell lines for cell culture and in vitro cytotoxicity studies. After 72 h of incubation, we used an MTS test to determine the cytotoxicity of the developed peptides complexed with scrambled siRNA. The peptide/siRNA complexes were applied to the cells at various concentrations and N/P ratios (from 10 to 100). […] This finding corroborates the results from our previous reports.
(§2) The cell lines selected for this study included MDA-MB-231 (ATCC No. HTB-26, triple-negative breast cancer cell line), MCF-7 (ATCC No. HTB-22, breast adenocarcinoma cells), HEK-293 (ATCC No. CRL-1573, normal kidney cells), and SK-OV-3 (ATCC No. HTB-77, human epithelial ovary adenocarcinoma cells). […]
(§3) The cytotoxicity of the synthesized oleyl-conjugated peptides complexed with scrambled siRNA was evaluated in vitro using the aforementioned cell lines. […]
(§4) For the assay, 10,000 cells per 0.1 mL were seeded into each well of a 96-well plate using a multichannel pipette and allowed to adhere for 24 h in a standard cell culture incubator. Cell health and confluency were assessed after the initial 24 h period. […]

MDA-MB-231 cells = assay type: cell-based
Experimental: as §1, §2, §3, §4

SK-OV-3 cells = assay type: cell-based, human
Experimental: as §1, §2, §3, §4

HEK-293 cells = assay type: cell-based
Experimental: as §1
The cell lines selected for this study included MDA-MB-231 (ATCC No. HTB-26, triple-negative breast cancer cell line), MCF-7 (ATCC No. HTB-22, breast adenocarcinoma cells), HEK-293 (ATCC No. CRL-1573, normal kidney cells), and SK-OV-3 (ATCC No. HTB-77, human epithelial ovary adenocarcinoma cells).
as §3, §4

Measured: cells to which the positive control was cytotoxic

C[S+](C)[O-] [DMSO]
over 70%: MCF-7 cells | MDA-MB-231 cells | SK-OV-3 cells | HEK-293 cells
